# Experimental data taken from PMC7464304, “Multiple-Reaction Monitoring Tandem Mass Method for Determination of Phenolics and Water-Soluble Vitamins in Eccoilopus formosanus” (Molecules, 2020).
# Test: DPPH radical scavenging activity
# Conditions: 0.1 mM DPPH, 30 min in the dark at room temperature, absorbance 517 nm; mean ± SD (n = 3)
# Procedure: The reaction mixture was left in the dark at room temperature for 30 min. […] The percentage of scavenging activity against the DPPH radical was calculated by the following equation:Radical scavenging activity (%) = (Abs control − Abs sample)/Abs control × 100% where Abs control is the absorbance of the DPPH radical in methanol; Abs sample is the absorbance of the DPPH radical solution mixed with the sample extract. […] All determinations were performed in triplicate.
row,"DPPH Radical Scavenging Activity, IC50 Value [µg/mL]",SMILES
1,>500,"Cc1ncc(C[n+]2csc(CCO)c2C)c(N)n1 [Thiamine, thiamine]"
2,45.2 ± 0.3,"COc1cc(/C=C/C(=O)O)ccc1O [Ferulic acid, ferulic acid]"
3,25.3 ± 0.3,"O=C(O)/C=C/c1ccc(O)c(O)c1 [Caffeic acid, caffeic acid]"
4,21.1 ± 0.3,"O=C(O)c1cc(O)c(O)c(O)c1 [Gallic acid, gallic acid]"
5,31.6 ± 0.9,"O=c1cc(-c2ccc(O)cc2)oc2cc(O)cc(O)c12 [Apigenin, apigenin]"
